From patent US6974835B2, “Methods for decreasing cell proliferation based on (3r,4r)-Δ8-tetrahydrocannabinol-11-oic acids” (Indevus Pharmaceuticals, Inc., priority 2000, dated 2005)

Key:
tumor cells = test: Stereospecificity of inhibition of cell proliferation (D-isomer vs L-isomer); assay type: cell-based; conditions: 25 μM dose, FIG. 2, p<0.001
PC3 = test: 48 hour MTT assay, PC3; conditions: PC3 (Prostate), 25 μM
U373 = test: 48 hour MTT assay, U373; conditions: U373 (Brain), 25 μM
[1] = tested on: human cell lines derived from a variety of cancer types (brain, breast, bladder, lung, and prostate); test: 48 hour MTT assay, mean over the human cancer cell lines; conditions: 25 μM, mean of the ten lines of Table 1
Du145 = test: 48 hour MTT assay, Du145; conditions: Du145 (Prostate), 25 μM
HS578T = test: 48 hour MTT assay, HS578T; conditions: HS578T (Breast), 25 μM
U87 = test: 48 hour MTT assay, U87; conditions: U87 (Brain), 25 μM
C6 cells = test: Lipid incorporation assay; assay type: cell-based; conditions: 25 μM, 14C-labeled arachidonic acid, 48 hours; for neutral lipids, increase above basal levels: FIG. 3
J82 = test: 48 hour MTT assay, J82; conditions: J82 (Bladder), 25 μM
C6 glioma cells [2] = test: Microscopy of treated cells (cell size, refractile bodies, electron microscopy)
WI38 cells = test: Phase microscopy for refractile bodies, WI38; assay type: cell-based, rat; conditions: 48 hours, same dosage
Protein kinase C (PKC) = Protein kinase C (PKC) assay; assay type: cell-based; conditions: C6 cells, 25 μM, for one hour
Protocol: Protein kinase C (PKC) assay. Cells were transferred into MEM media (0.5% serum) and cultured overnight. The next day, cells were treated with either DMSO or 25 μM ajulemic acid for the specified incubation time, after which the plates were trypsinized. 5×10^6 trypsinized cells were assayed for PKC activity using a kit (Calbiochem, cat. no. 53984).

C6 glioma cells [3] = test: Viability by trypan blue exclusion
C6 glioma cells [4] = test: Co-incubation with a CB1 antagonist, cell proliferation; assay type: cell-based; conditions: 3.2 μM of a specific CB1 antagonist
[5] = tested on: human glioma cell line U87 injected subcutaneously in nude mice; test: In vivo subcutaneous model; conditions: 0.1 mg/kg thrice weekly, FIG. 4
Protocol: In vivo subcutaneous model. 10^6 U87 cells were injected into the right flank muscle of male nu/nu BALBc mice (Charles River). Two days after inoculation, the mice received either 0.1 mg/kg ajulemic acid in 0.05 ml of safflower oil or 0.05 ml safflower oil by oral administration. Thereafter, identical dosings were performed on each Monday, Wednesday, and Friday. When visible tumors appeared, the size of the tumors were estimated by averaging the values of two roughly perpendicular diameters measurements. Visible tumors were measured on the days of drug administration.

SMILES: CCCCCCC(C)(C)c1cc(O)c2c(c1)OC(C)(C)[C@@H]1CC=C(C(=O)O)C[C@@H]21 (single isomer, unassigned) [D-isomer of ajulemic acid]
- potency of D-isomer compared to the L-isomer of ajulemic acid (tumor cells): marked decrease in the potency

SMILES: CCCCCc1cc(O)c2c(c1)OC(C)(C)[C@@H]1CC=C(C(=O)O)C[C@@H]21 [THC-11-oic acid]
- Percent inhibition of human cancer cell line growth (PC3): 1 ± 1%
- Percent inhibition of human cancer cell line growth (U373): 0%
- inhibition levels (mean±SD) over the human cell lines [1]: 13.1±18.5%
- Percent inhibition of human cancer cell line growth (Du145): 7 ± 3%
- Percent inhibition of human cancer cell line growth (HS578T): 2 ± 1%
- Percent inhibition of human cancer cell line growth (U87): 5 ± 1%
- neutral lipids, increase above basal levels (C6 cells): significant increase above basal levels was only noted for ajulemic acid
- Percent inhibition of human cancer cell line growth (J82): 1 ± 1%
- refractile bodies noted (in words) (C6 glioma cells [2]; C6 glioma cells, 25 μM, 48 hours): no refractile bodies were noted

SMILES: CCCCCCC(C)(C)c1cc(O)c2c(c1)OC(C)(C)[C@@H]1CC=C(C(=O)O)C[C@@H]21 [ajulemic acid, 1′,1′-dimethylheptyl-Δ^8-THC-11-oic acid]
- refractile bodies noted (in words) (WI38 cells): no refractile bodies were noted
- PKC activity versus control (Protein kinase C (PKC)): approximately two-fold above that of control
- viability rate (C6 glioma cells [3]): > 95%
- change in potency on co-incubation with CB1 antagonist (C6 glioma cells [4]): slight potentiation
- content of tri- and di-glyceride versus controls (C6 cells): over three-fold greater than in controls
- neutral lipids, increase above basal levels (C6 cells): significant increase above basal levels
- appearance and size of tumors (in words) [5]: delay in both the appearance and size of tumors
- cell size (C6 glioma cells [2]; after 48 hours of exposure): marked increase in cell size
- appearance under electron microscopy (C6 glioma cells [2]; treated cells): neither apoptotic nor necrotic

SMILES: CCCCCc1cc(O)c2c(c1)OC(C)(C)[C@@H]1CCC(C)=C[C@@H]21 [Δ^9-THC, tetrahydrocannabinol]
- change in potency on co-incubation with CB1 antagonist (C6 glioma cells [4]): 150%
- neutral lipids, increase above basal levels (C6 cells): significant increase above basal levels was only noted for ajulemic acid
